Experimental data taken from ChEMBL document CHEMBL6153052, “Development of molecular Trojan horses targeting New Delhi metallo-β-lactamase-1 for the restoration of meropenem susceptibility in drug-resistant bacteria” (Eur J Med Chem, 2025).
≈ marks a conversion by molar mass, not a printed value. Calls of active or inactive are those of the source. The calls are words filed in the database; no cut-off is given here.

Key:
[1] = biological target: Metallo-beta-lactamase type 2 (Bacteria) (UniProt C7C422); assay: Inhibition of NDM-1 (unknown origin) using nitrocefin as substrate assessed as residual activity at 64 ug/ml preincubated for 15 mins followed by substrate addition by absorbance based assay relative to control; conditions: dose 64.0 µg/ml
Sequence of Metallo-beta-lactamase type 2 (Bacteria) (C7C422 whole entry): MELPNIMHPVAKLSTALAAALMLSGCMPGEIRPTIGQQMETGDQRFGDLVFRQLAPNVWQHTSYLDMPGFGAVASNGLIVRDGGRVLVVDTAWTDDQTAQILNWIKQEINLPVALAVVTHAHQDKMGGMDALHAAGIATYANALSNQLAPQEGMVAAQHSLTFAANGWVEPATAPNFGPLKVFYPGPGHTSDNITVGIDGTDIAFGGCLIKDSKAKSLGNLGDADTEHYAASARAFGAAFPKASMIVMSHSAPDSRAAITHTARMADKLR

[2] = biological target: T1, Metallo-beta-lactamase type 2 (Bacteria, UniProt C7C422); assay: Inhibition of NDM-1 (unknown origin) using nitrocefin as substrate assessed as residual activity preincubated for 15 mins followed by substrate addition by absorbance based assay
T1 sequence (C7C422 whole entry): as above

[3] = biological target: T1, Metallo-beta-lactamase type 2; assay: Inhibition of C-terminal His-tagged NDM-1 (unknown origin) extracted from Escherichia coli BL21 (DE3) using fluorescent cephalosporin as substrate preincubated for 10 mins followed by substrate addition by fluorescence based assay
Escherichia coli [4] = assay: Antibacterial activity against Escherichia coli BL21 assessed as minimum bacteriostatic concentration incubated for 20 hrs; assay type: functional
Klebsiella pneumoniae [5] = assay: Antibacterial activity against Klebsiella pneumoniae K-N-1 assessed as minimum bacteriostatic concentration incubated for 20 hrs; assay type: functional
Acinetobacter baumannii [6] = assay: Antibacterial activity against Acinetobacter baumannii aba assessed as minimum bacteriostatic concentration incubated for 20 hrs; assay type: functional
Escherichia coli [7] = assay: Antibacterial activity against Escherichia coli ZJ487 assessed as minimum bacteriostatic concentration incubated for 20 hrs; assay type: functional
Escherichia coli [8] = assay: Synergistic antibacterial activity against Escherichia coli BL21 assessed as minimum bacteriostatic concentration of meropenem at 8 ug/ml incubated for 20 hrs; assay type: functional; conditions: dose 8 µg/ml
Klebsiella pneumoniae [9] = assay: Synergistic antibacterial activity against Klebsiella pneumoniae K-N-1 assessed as minimum bacteriostatic concentration of meropenem at 8 ug/ml incubated for 20 hrs; assay type: functional; conditions: dose 8 µg/ml
Acinetobacter baumannii [10] = assay: Synergistic antibacterial against Acinetobacter baumannii aba assessed as minimum bacteriostatic concentration of meropenem at 8 ug/ml incubated for 20 hrs; assay type: functional; conditions: dose 8 µg/ml
Escherichia coli [11] = assay: Synergistic antibacterial activity against Escherichia coli ZJ487 assessed as minimum bacteriostatic concentration of meropenem at 8 ug/ml incubated for 20 hrs; assay type: functional; conditions: dose 8 µg/ml
Escherichia coli [12] = assay: Synergistic antibacterial activity against Escherichia coli BL21 assessed as fractional inhibitory concentration index at 8 ug/ml incubated for 20 hrs in presence of meropenem; assay type: functional; conditions: dose 8 µg/ml
Klebsiella pneumoniae [13] = assay: Synergistic antibacterial activity against Klebsiella pneumoniae K-N-1 assessed as fractional inhibitory concentration index at 8 ug/ml incubated for 20 hrs in presence of meropenem; assay type: functional; conditions: dose 8 µg/ml
Acinetobacter baumannii [14] = assay: Synergistic antibacterial against Acinetobacter baumannii aba assessed as fractional inhibitory concentration index at 8 ug/ml incubated for 20 hrs in presence of meropenem; assay type: functional; conditions: dose 8 µg/ml
Escherichia coli [15] = assay: Synergistic antibacterial activity against Escherichia coli ZJ487 assessed as fractional inhibitory concentration index at 8 ug/ml incubated for 20 hrs in presence of meropenem; assay type: functional; conditions: dose 8 µg/ml
THP-1 = assay: Cytotoxicity against human THP-1 cells assessed as survival rate at 128 ug/ml incubated for 48 hrs by MTT assay; assay type: functional; conditions: read-out: Survival
[16] = Cytotoxicity against HEK293T cells assessed as survival rate at 128 ug/ml incubated for 48 hrs by MTT assay; assay type: toxicity, cell-based, HEK-293T; conditions: human, at 128 µg/mL, read-out: Survival
Escherichia coli [17] = assay: Synergistic antibacterial activity against Escherichia coli BL21 expressing NDM-1 assessed as fractional inhibitory concentration index upto 64 ug/ml incubated for 24 hrs in presence of meropenem by microdilution checkerboard analysis; assay type: functional; conditions: dose <= 64 µg/ml
Escherichia coli [18] = assay: Synergistic antibacterial activity against Escherichia coli ZJ487 assessed as fractional inhibitory concentration index upto 64 ug/ml incubated for 24 hrs in presence of meropenem by microdilution checkerboard analysis; assay type: functional; conditions: dose <= 64 µg/ml
Escherichia coli [19] = assay: Synergistic bactericidal activity against Escherichia coli BL21 expressing NDM-1 at 16 ug/ml incubated for 8 hrs in presence of meropenem; assay type: functional, organism-based; conditions: dose 16.0 µg/ml
[20] = Metabolic stability in rat plasma assessed as parent compound remaining measured after 48 hrs by HPLC analysis; assay type: ADME, cell-free; conditions: read-out: Stability
[21] = Metabolic stability in rat liver homogenate assessed as parent compound remaining measured after 48 hrs by HPLC analysis; assay type: ADME, tissue-based; conditions: read-out: Stability
Escherichia coli [22] = assay: Synergistic bactericidal activity against Escherichia coli ZJ487 at 16 ug/ml incubated for 8 hrs in presence of meropenem; assay type: functional, organism-based; conditions: dose 16.0 µg/ml
Escherichia coli [23] = assay: Antibacterial activity against Escherichia coli ZJ487 infected in BALB/c mouse assessed as reduction in bacterial count in liver at 10 mg/kg, sc administered at every 12 hr interval measured after 42 hrs; assay type: functional, organism-based
Escherichia coli [24] = assay: Antibacterial activity against Escherichia coli ZJ487 infected in BALB/c mouse assessed as reduction in bacterial count in spleen at 10 mg/kg, sc administered at every 12 hr interval measured after 42 hrs; assay type: functional, organism-based
Escherichia coli [25] = assay: Synergistic antibacterial activity against Escherichia coli ZJ487 infected in BALB/c mouse assessed as reduction in bacterial count in liver at 10 mg/kg, sc administered at every 12 hr interval measured after 42 hrs in presence of meropenem; assay type: functional, organism-based
Escherichia coli [26] = assay: Synergistic antibacterial activity against Escherichia coli ZJ487 infected in BALB/c mouse assessed as reduction in bacterial count in spleen at 10 mg/kg, sc administered at every 12 hr interval measured after 42 hrs in presence of meropenem; assay type: functional, organism-based
[27] = biological target: T1, Metallo-beta-lactamase type 2; assay: Inhibition of NDM-1 (unknown origin)

Q: Which Activity [1] does the source give for CC1=C(C(=O)O)N2C(=O)[C@@H](NCc3cc(Cl)cc(Cl)c3)[C@H]2SC1 here?
A: 99.6%

Q: With O=C(O)C1=C(C[Se]c2ccccc2C(=O)Nc2ccccc2)CS[C@@H]2[C@H](NC(=O)c3ccccc3)C(=O)N12 as the compound, how does the Activity [1] read?
A: 22.3%

Q: What about the IC50 [2] of the same compound?
A: 62.2 µM

Q: For O=C(O)C1=C(C[Se]c2ccccc2C(=O)Nc2ccccc2)CS[C@@H]2[C@H](NCc3cc(Cl)nc(Cl)c3)C(=O)N12, which Activity [1] is on record?
A: 68.1%

Q: With O=C(O)C1=C(C[Se]c2ccccc2C(=O)Nc2ccccc2)CS[C@@H]2[C@H](NCc3cc(F)cc(Cl)c3)C(=O)N12 as the compound, how does the Activity [1] read?
A: 27.8%

Q: What about the IC50 [2] of the same compound?
A: 77.8 µM

Q: Which Activity [1] does the source give for O=C(O)C1=C(C[Se]c2ccccc2C(=O)Nc2ccccc2)CS[C@@H]2[C@H](NS(=O)(=O)c3cccs3)C(=O)N12 here?
A: 51.6%

Q: For O=C(Cc1ccccc1)N[C@@H]1C(=O)N2C(C(=O)O)=C(CSc3cccc4cccnc34)CS[C@H]12, which IC50 [3] is on record?
A: 2.31 µM

Q: With O=C(O)C1=C(C[Se]c2ccccc2C(=O)Nc2ccccc2)CS[C@@H]2[C@H](NS(=O)(=O)C3CC3)C(=O)N12 as the compound, how does the Activity [1] read?
A: 44.1%

Q: And the IC50 [2]?
A: 114 µM

Q: What does the source list for CS(=O)(=O)N[C@@H]1C(=O)N2C(C(=O)O)=C(C[Se]c3ccccc3C(=O)Nc3ccccc3)CS[C@H]12?
A: Activity [1]: 48.9%; IC50 [2]: 69.7 µM

Q: For O=C(O)C1=C(C[Se]c2ccccc2C(=O)Nc2ccccc2)CS[C@@H]2[C@H](NC(=O)n3cnnn3)C(=O)N12, which Activity [1] is on record?
A: 72.9%

Q: Which Activity [1] does the source give for Cc1cc(Cl)cc(CN[C@@H]2C(=O)N3C(C(=O)O)=C(C[Se]c4ccccc4C(=O)Nc4ccccc4)CS[C@H]23)c1 here?
A: 30%

Q: What about the IC50 [2] of the same compound?
A: 72.9 µM

Q: Which Activity [1] does the source give for O=C(O)C1=C(C[Se]c2ccccc2C(=O)Nc2ccccc2)CS[C@@H]2[C@H](NCc3ccccc3Cl)C(=O)N12 here?
A: 66.2%

Q: For O=C(O)C1=C(C[Se]c2ccccc2C(=O)Nc2ccccc2)CS[C@@H]2[C@H](NCc3cc(Cl)cc(Cl)c3)C(=O)N12, which Activity [1] is on record?
A: 6.53%

Q: What about the IC50 [2] of the same compound?
A: 7.03 µM

Q: What about the MIC (Escherichia coli [4]) of the same compound?
A: 128 mg/L (≈ 198 µM)

Q: And the MIC (Klebsiella pneumoniae [5])?
A: 64 mg/L (≈ 98.9 µM)

Q: What about the MIC (Acinetobacter baumannii [6]) of the same compound?
A: > 512 mg/L

Q: And the MIC (Escherichia coli [7])?
A: 32 mg/L (≈ 49.4 µM)

Q: And the MIC (Escherichia coli [8])?
A: 16 mg/L

Q: What about the MIC (Klebsiella pneumoniae [9]) of the same compound?
A: 16 mg/L

Q: And the MIC (Acinetobacter baumannii [10])?
A: 32 mg/L

Q: And the MIC (Escherichia coli [11])?
A: 1 mg/L

Q: And the “fractional inhibitory concentration index (FICI)” value (Escherichia coli [12])?
A: 0.141

Q: What about the “fractional inhibitory concentration index (FICI)” value (Klebsiella pneumoniae [13]) of the same compound?
A: 0.281

Q: And the “fractional inhibitory concentration index (FICI)” value (Acinetobacter baumannii [14])?
A: 0.078

Q: What about the “fractional inhibitory concentration index (FICI)” value (Escherichia coli [15]) of the same compound?
A: 0.093

Q: What about the viability at 128 µg/mL (THP-1) of the same compound?
A: > 100%

Q: What about the viability at 48 h, 128 ug/ml [16] of the same compound?
A: > 100%

Q: What about the “fractional inhibitory concentration index (FICI)” value (Escherichia coli [17]) of the same compound?
A: 0.25

Q: And the “fractional inhibitory concentration index (FICI)” value (Escherichia coli [18])?
A: 0.125

Q: And the Activity (Escherichia coli [19])?
A: Not active; Compound Did Not Eradicate Bacteria Completely But Maintained A State Of Significantly Lower Level Compared To Meropenem Alone

Q: What about the remaining at 48 h [20] of the same compound?
A: > 80%

Q: And the remaining at 48 h [21]?
A: 59.3%

Q: And the Activity (Escherichia coli [22])?
A: Not active; Compound Did Not Eradicate Bacteria Completely But Maintained A State Of Significantly Lower Level Compared To Meropenem Alone

Q: And the Activity (Escherichia coli [23])?
A: inactive

Q: What about the Activity (Escherichia coli [24]) of the same compound?
A: inactive

Q: What about the Activity (Escherichia coli [25]) of the same compound?
A: Active

Q: And the Activity (Escherichia coli [26])?
A: Active

Q: Which Activity [1] does the source give for O=C(O)C1=C(C[Se]c2ccccc2C(=O)Nc2ccccc2)CS[C@@H]2[C@H](NCc3cccs3)C(=O)N12 here?
A: 25.2%

Q: What about the IC50 [2] of the same compound?
A: 52.9 µM

Q: Which results are given for O=C(O)C1=C(C[Se]c2ccccc2C(=O)Nc2ccccc2)CS[C@@H]2[C@H](NCc3ccccc3)C(=O)N12?
A: Activity [1]: 17.8%; IC50 [2]: 37.8 µM

Q: For N#CCC(=O)N[C@@H]1C(=O)N2C(C(=O)O)=C(C[Se]c3ccccc3C(=O)Nc3ccccc3)CS[C@H]12, which Activity [1] is on record?
A: 61.7%

Q: With COc1cc(CN[C@@H]2C(=O)N3C(C(=O)O)=C(C[Se]c4ccccc4C(=O)Nc4ccccc4)CS[C@H]23)cc(OC)c1 as the compound, how does the Activity [1] read?
A: 55.8%

Q: For O=C(Cc1ccccc1)N[C@H]1C(=O)N2C(C(=O)O)=C(C[S+]([O-])CCC(=O)Oc3c(F)c(F)c(F)c(F)c3F)C[S+]([O-])[C@@H]12 (stereo partly specified), which IC50 [27] is on record?
A: 0.39 µM

Q: For COc1cc(Cl)cc(CN[C@@H]2C(=O)N3C(C(=O)O)=C(C[Se]c4ccccc4C(=O)Nc4ccccc4)CS[C@H]23)c1, which Activity [1] is on record?
A: 37.9%

Q: For O=C(O)C1=C(C[Se]c2ccccc2C(=O)Nc2ccccc2)CS[C@@H]2[C@H](NCc3cccc(Cl)c3)C(=O)N12, which Activity [1] is on record?
A: 60.9%
